This is an account of results in PubChem BioAssay (NCI).

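Protocol summary: plate cells (96-well), add compound at 5 concentrations, incubate 48 h, interpolate endpoints linearly. TGI: concentration producing complete growth inhibition.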

Among the test systems are COLO 205 colon; DU-145 prostate; HL-60(TB) leukemia; HT29 colon; IGROV1 ovarian; KM12 colon; NCI/ADR-RES ovarian; SF-268 CNS; SK-MEL-28 melanoma; SW-620 colon.
Common to all, as to assay: NCI-60 cell line screen, 48 h

With `COc1ccc(/C=C2\N=C3N(Cc4ccccc4)C=C(N)N3C2=O)cc1`, the TGI in the experiment on COLO 205 colon, in the experiment with DU-145 prostate, in the experiment with HL-60(TB) leukemia, in the experiment with HT29 colon, in the experiment with IGROV1 ovarian and with KM12 colon was over 100 µM each time. For the same compound, the TGI in the experiment on NCI/ADR-RES ovarian, with SF-268 CNS, with SK-MEL-28 melanoma and in the experiment with SW-620 colon was over 100 µM in each case.

As to `COc1cc(C2C3=C(NC(=O)C2C#N)c2ccc4ccccc4c2OCC3)cc(OC)c1OC` (stereo not drawn), the TGI with COLO 205 colon is 33.1 µM; in the experiment on DU-145 prostate it was over 100 µM; in the experiment on HL-60(TB) leukemia, over 100 µM; in the experiment on HT29 colon it was over 100 µM; in the experiment with IGROV1 ovarian, 36.9 µM; in the experiment with KM12 colon it was over 100 µM. Moreover, the TGI was over 100 µM in the experiment on NCI/ADR-RES ovarian, 64.1 µM with SF-268 CNS, over 100 µM with SK-MEL-28 melanoma and over 100 µM in the experiment with SW-620 colon.

Take `COc1cc(/C=C2\C(=O)N(c3ccc(Cl)cc3)C(c3ccccc3)S2(=O)=O)cc(OC)c1OC` (stereo not drawn): the TGI in the experiment with COLO 205 colon is over 32.8 µM; in the experiment with DU-145 prostate it was over 100 µM; in the experiment with HL-60(TB) leukemia it was over 100 µM; in the experiment on HT29 colon it was over 100 µM; in the experiment on KM12 colon, 99.3 µM; in the experiment on NCI/ADR-RES ovarian it was over 100 µM. In addition, the TGI with SF-268 CNS, with SK-MEL-28 melanoma and in the experiment on SW-620 colon was over 100 µM in each case.

With `Cc1c(C)c2c(c(N)c1C#N)C(=O)N(NC(=S)Nc1ccccc1)C2=O`, the TGI in the experiment with COLO 205 colon, with DU-145 prostate, in the experiment on HL-60(TB) leukemia, with HT29 colon, in the experiment on IGROV1 ovarian and in the experiment with KM12 colon was over 100 µM throughout. Also, the TGI with NCI/ADR-RES ovarian, in the experiment on SF-268 CNS, in the experiment with SK-MEL-28 melanoma and in the experiment with SW-620 colon was over 100 µM throughout.

Regarding `O=C(Nc1nnc(-c2ccccc2)o1)C(SC(=S)N1CCCC1)c1ccccc1` (stereo not drawn), the TGI with COLO 205 colon is over 100 µM; in the experiment on DU-145 prostate it was over 100 µM; with HL-60(TB) leukemia, 48.1 µM; in the experiment with HT29 colon, over 100 µM; with IGROV1 ovarian, over 100 µM; in the experiment with KM12 colon, over 100 µM. Further, the TGI with NCI/ADR-RES ovarian was 60.1 µM; in the experiment on SK-MEL-28 melanoma it was over 100 µM; in the experiment with SW-620 colon, over 100 µM.

For `CCOC(=O)/C=C(/OCC)[C@@H]1C(C(=O)c2ccc(Cl)cc2)[C@@H]1/C(=C\C(=O)OCC)OCC` (stereo partly drawn), the TGI was 27.4 µM in the experiment with COLO 205 colon; over 100 µM in the experiment with DU-145 prostate; 37.5 µM in the experiment with HL-60(TB) leukemia; over 100 µM with HT29 colon; over 100 µM in the experiment on IGROV1 ovarian; over 51.3 µM in the experiment on KM12 colon. The TGI is over 34 µM with NCI/ADR-RES ovarian, over 100 µM in the experiment on SF-268 CNS, over 100 µM in the experiment on SK-MEL-28 melanoma and over 100 µM in the experiment on SW-620 colon.

Consider `Cc1cc(C)nc(NS(=O)(=O)c2ccc(NC(=O)c3ccc4nc5ccccc5c(Nc5ccc(S(=O)(=O)N=C(N)N)cc5)c4c3)cc2)n1`, for which the TGI in the experiment on COLO 205 colon, with DU-145 prostate, in the experiment with HL-60(TB) leukemia, in the experiment with HT29 colon, in the experiment on IGROV1 ovarian and with KM12 colon was over 100 µM throughout. The TGI in the experiment with NCI/ADR-RES ovarian, in the experiment on SF-268 CNS, in the experiment on SK-MEL-28 melanoma and in the experiment with SW-620 colon was over 100 µM in each case.

In the case of `N=C(N)c1ccc(N=Nc2c(O)c(C(=O)Nc3ccccc3)cc3ccccc23)cc1`, the TGI in the experiment with COLO 205 colon is over 76.9 µM; in the experiment on DU-145 prostate, over 100 µM; in the experiment on HL-60(TB) leukemia, 55.1 µM; with HT29 colon, 42.4 µM; in the experiment with IGROV1 ovarian, over 74.6 µM; in the experiment with KM12 colon, 29.9 µM. In addition, the TGI was over 100 µM in the experiment with NCI/ADR-RES ovarian, 55.4 µM in the experiment on SF-268 CNS, over 100 µM with SK-MEL-28 melanoma and over 100 µM with SW-620 colon.

For the compound `Cc1cc(S(=O)(=O)NC2=NCc3c(F)cccc3N2)c(S)cc1Cl`, the TGI with COLO 205 colon, with DU-145 prostate, in the experiment with HL-60(TB) leukemia, in the experiment on IGROV1 ovarian, with KM12 colon and with NCI/ADR-RES ovarian was over 100 µM each time. Also, the TGI with SF-268 CNS, with SK-MEL-28 melanoma and with SW-620 colon was over 100 µM each time.

On to `CC(CSc1nc2c(c(=N)n1-c1ccccc1)c(=S)n(-c1ccccc1)c(=S)n2-c1ccccc1)CN(C)C` (stereo not drawn), for which the TGI with COLO 205 colon was 3.48 µM; in the experiment with DU-145 prostate, 3.03 µM; in the experiment with HL-60(TB) leukemia it was 2.37 µM; with IGROV1 ovarian it was 2.79 µM; with KM12 colon, 5.6 µM; in the experiment on NCI/ADR-RES ovarian, 11.8 µM. For the same compound, the TGI with SF-268 CNS is 3.24 µM; with SK-MEL-28 melanoma it was 4.67 µM; in the experiment on SW-620 colon it was 8.1 µM.

On to `Nc1ccc2c3c1cccc3c(=O)n1c3ccc(Cc4ccc5c(c4)nc4c6ccc(N)c7cccc(c(=O)n54)c76)cc3nc21`, for which the TGI with COLO 205 colon, in the experiment on DU-145 prostate, in the experiment on HL-60(TB) leukemia, in the experiment on HT29 colon, in the experiment on IGROV1 ovarian and with KM12 colon was over 100 µM throughout. The TGI with NCI/ADR-RES ovarian, in the experiment with SK-MEL-28 melanoma and with SW-620 colon was over 100 µM throughout.

As to `CCOC(=O)CC1C(C(=O)OCC)=Cn2c([nH]c3cccc4cccc2c43)=C1C(=O)OCC` (stereo not drawn), the TGI with COLO 205 colon, with DU-145 prostate, in the experiment on HL-60(TB) leukemia, in the experiment with HT29 colon, with IGROV1 ovarian and in the experiment with KM12 colon was over 100 µM throughout. Besides, the TGI in the experiment on NCI/ADR-RES ovarian, in the experiment on SK-MEL-28 melanoma and in the experiment on SW-620 colon was over 100 µM throughout.

On to `CC(C)(C)c1cc(C(C)(C)C)c2sc(=O)oc2c1O`, for which the TGI in the experiment on COLO 205 colon turned out to be 33.7 µM; with DU-145 prostate, 32.8 µM; in the experiment on HL-60(TB) leukemia, 19.6 µM; in the experiment on HT29 colon, 33.2 µM; with IGROV1 ovarian it was 27.7 µM; in the experiment on KM12 colon it was 27.9 µM. In addition, the TGI in the experiment on NCI/ADR-RES ovarian amounted to 30.1 µM; with SF-268 CNS it was 26.4 µM; with SK-MEL-28 melanoma it was 32.5 µM.
